According to ChEMBL document CHEMBL1649323, “Easy strategy to protect antimicrobial peptides from fast degradation in serum” (Antimicrob Agents Chemother, 2010):
Converted amounts (≈) assume the structure as drawn.

Key:
Staphylococcus aureus = experiment: Antimicrobial activity against Staphylococcus aureus ATCC 25923 by broth microdilution method; format: functional
Pseudomonas aeruginosa = experiment: Antimicrobial activity against Pseudomonas aeruginosa PAO1 H103 by broth microdilution method; format: functional
[1] = Half life in mouse serum; format: ADME, cell-free

Compound | MIC (Staphylococcus aureus) | MIC (Pseudomonas aeruginosa) | half-life [1]
CC[C@H](C)[C@H](NC(=O)[C@H](CCCNC(=N)N)NC(=O)[C@H](Cc1c[nH]c2ccccc12)NC(=O)[C@H](CCCNC(=N)N)NC(=O)[C@H](CCCNC(=N)N)NC(=O)[C@@H](C)N)C(=O)N[C@H](C(=O)N[C@H](C(=O)N[C@H](C(=O)N[C@@H](CCCNC(=N)N)C(=O)N[C@H](C(=O)N[C@@H](CCCNC(=N)N)C(=O)N[C@@H](CCCNC(=N)N)C(=O)N[C@H](Cc1cnc[nH]1)C(N)=O)C(C)C)[C@@H](C)CC)C(C)C)C(C)C | 1 µg/mL (≈ 0.534 µM) | 2 µg/mL (≈ 1.07 µM) | –
CC[C@H](C)[C@H](NC(=O)[C@H](CNC(=N)N)NC(=O)[C@H](Cc1c[nH]c2ccccc12)NC(=O)[C@H](CNC(=N)N)NC(=O)[C@H](CNC(=N)N)NC(=O)[C@@H](C)N)C(=O)N[C@H](C(=O)N[C@H](C(=O)N[C@H](C(=O)N[C@@H](CNC(=N)N)C(=O)N[C@H](C(=O)N[C@@H](CNC(=N)N)C(=O)N[C@@H](CNC(=N)N)C(=O)N[C@H](Cc1cnc[nH]1)C(N)=O)C(C)C)[C@@H](C)CC)C(C)C)C(C)C | 1 µg/mL (≈ 0.587 µM) | 2 µg/mL (≈ 1.17 µM) | –
H-RRWRIVVIRVRR-NH2 | 1 µg/mL | 2 µg/mL | 1 h
